Measured values taken from PMC6934184, “Selective DNA-PKcs inhibition extends the therapeutic index of localized radiotherapy and chemotherapy” (The Journal of Clinical Investigation, 2019).

Molecular target: T1, SGKL (SGK3) (Homo sapiens, UniProt Q96BR1)
T1 construct: purchased Thermo Fisher Scientific (Life Technologies) SelectScreen
Assay: SelectScreen Z'LYTE
Format: biochemical
Procedure, shortened: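 SelectScreen broad panel; activity (Z'LYTE, Adapta) plus binding formats. ATP: Km app for CSF1R Z'LYTE; 10 for CAMK1 Adapta. Readout = % per kinase.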

T1 sequence (Q96BR1 whole entry): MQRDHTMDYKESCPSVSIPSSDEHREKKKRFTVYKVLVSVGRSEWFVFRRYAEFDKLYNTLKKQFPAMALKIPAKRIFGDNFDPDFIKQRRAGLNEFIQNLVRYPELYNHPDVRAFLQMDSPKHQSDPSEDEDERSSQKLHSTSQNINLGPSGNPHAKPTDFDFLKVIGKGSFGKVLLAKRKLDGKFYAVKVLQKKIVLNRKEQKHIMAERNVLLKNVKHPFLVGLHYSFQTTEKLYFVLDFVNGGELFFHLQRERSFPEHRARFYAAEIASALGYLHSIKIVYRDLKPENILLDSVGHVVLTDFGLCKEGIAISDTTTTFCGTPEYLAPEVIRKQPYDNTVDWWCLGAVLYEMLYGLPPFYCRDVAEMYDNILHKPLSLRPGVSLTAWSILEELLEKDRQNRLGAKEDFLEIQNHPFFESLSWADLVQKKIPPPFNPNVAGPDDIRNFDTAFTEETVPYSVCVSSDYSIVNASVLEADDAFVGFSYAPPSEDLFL

## CN(C(=O)CN1CCOCC1)c1ccc2sc3c(-c4cccc5c(=O)cc(N6CC7CCC(C6)O7)oc45)cccc3c2c1 [NU5455]
  inhibition at 1 µM: -4.6%
